In US11292796B2 (SIGNAL PHARMACEUTICALS, LLC, priority 2008, dated 2022):
pIC50: −log10 of the molar value.

molecular target: T1, mTOR (Homo sapiens, UniProt P42345); test: mTOR HTR-FRET assay; format: biochemical; conditions: read-out: Act. Level (IC50 in mTor HTR-FRET assay)
T1 construct: purchased Invitrogen PR8683A
How it was run: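 Test compounds, taken from 10 mM DMSO stocks and diluted, were mixed with mTOR enzyme (0.200 μg/mL) in Tris buffer pH 7.4 with 100 mM NaCl, 0.1% Tween-20 and 1 mM DTT. ATP/substrate addition initiated the reaction, alongside compound-free controls.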

T1 sequence (P42345 1360-2549 limits assumed): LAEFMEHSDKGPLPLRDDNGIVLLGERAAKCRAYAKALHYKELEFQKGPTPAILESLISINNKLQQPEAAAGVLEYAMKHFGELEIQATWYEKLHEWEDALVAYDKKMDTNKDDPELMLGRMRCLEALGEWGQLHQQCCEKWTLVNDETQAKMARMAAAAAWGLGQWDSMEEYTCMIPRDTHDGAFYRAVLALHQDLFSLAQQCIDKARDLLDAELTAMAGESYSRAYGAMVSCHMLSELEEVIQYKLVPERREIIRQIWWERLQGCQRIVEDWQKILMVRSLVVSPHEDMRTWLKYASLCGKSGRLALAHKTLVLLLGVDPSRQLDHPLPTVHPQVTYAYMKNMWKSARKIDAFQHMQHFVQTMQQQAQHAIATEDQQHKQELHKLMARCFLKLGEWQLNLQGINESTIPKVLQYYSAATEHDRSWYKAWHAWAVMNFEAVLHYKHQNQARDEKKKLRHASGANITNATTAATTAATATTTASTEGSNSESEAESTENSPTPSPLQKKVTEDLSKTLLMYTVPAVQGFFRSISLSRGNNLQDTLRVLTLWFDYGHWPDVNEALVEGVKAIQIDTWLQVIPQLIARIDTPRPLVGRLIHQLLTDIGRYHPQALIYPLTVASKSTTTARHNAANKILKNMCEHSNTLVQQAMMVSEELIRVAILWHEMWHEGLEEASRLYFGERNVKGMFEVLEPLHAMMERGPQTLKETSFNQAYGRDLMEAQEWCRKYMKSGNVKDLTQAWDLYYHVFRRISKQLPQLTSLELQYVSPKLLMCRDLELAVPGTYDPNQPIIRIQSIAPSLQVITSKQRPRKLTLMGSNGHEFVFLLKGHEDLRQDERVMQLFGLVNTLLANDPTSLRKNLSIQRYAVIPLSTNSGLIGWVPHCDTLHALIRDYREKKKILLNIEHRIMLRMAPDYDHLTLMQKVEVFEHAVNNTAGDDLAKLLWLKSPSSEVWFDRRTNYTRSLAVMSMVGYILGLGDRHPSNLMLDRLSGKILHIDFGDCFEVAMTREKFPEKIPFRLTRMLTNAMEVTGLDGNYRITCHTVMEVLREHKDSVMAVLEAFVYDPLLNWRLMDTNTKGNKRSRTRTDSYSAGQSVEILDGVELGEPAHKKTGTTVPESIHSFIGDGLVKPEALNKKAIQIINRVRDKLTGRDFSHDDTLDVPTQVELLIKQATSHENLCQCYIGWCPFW

Compound	pIC50
Cc1cc(-c2nnc[nH]2)ccc1-c1cnc2c(n1)N(CC1CCOCC1)C1(CCCC1)C(=O)N2 [Example 61, 7′-(2-methyl-4-(4H-1,2,4-triazol-3-yl)phenyl)-1′-((tetrahydro-2H-pyran-4-yl)methyl)-1′H-spiro[cyclopentane-1,2′-pyrazino[2,3-b]pyrazin]-3′(4′H)-one]	6.60 to 11.30
COCCN1C(=O)CNc2ncc(-c3ccc(-c4cc[nH]n4)cc3)nc21 [Example 186, 7-(4-(1H-pyrazol-3-yl)phenyl)-1-(2-methoxyethyl)-3,4-dihydropyrazino[2,3-b]pyrazin-2(1H)-one]	6.60 to 11.30
O=C1CNc2ncc(-c3ccnc4[nH]ccc34)nc2N1CCC1CCOCC1 [Example 157, 7-(1H-pyrrolo[2,3-b]pyridin-4-yl)-1-(2-(tetrahydro-2H-pyran-4-yl)ethyl)-3,4-dihydropyrazino[2,3-b]pyrazin-2(1H)-one]	6.60 to 11.30
CC(C)(O)c1ccc(-c2cnc3c(n2)N([C@H]2CCOC2)CC(=O)N3)cn1 [Example 130, (S)-6-(6-(2-hydroxypropan-2-yl)pyridin-3-yl)-4-(tetrahydrofuran-3-yl)-3,4-dihydropyrazino[2,3-b]pyrazin-2(1H)-one]	6.00 to 6.30
CCN1CC(=O)Nc2ncc(-c3ccc(-c4nnc[nH]4)cc3)nc21 [Example 141, 6-(4-(4H-1,2,4-triazol-3-yl)phenyl)-4-ethyl-3,4-dihydropyrazino[2,3-b]pyrazin-2(1H)-one]	6.30 to 6.60
Cc1cc(-c2nc[nH]n2)c(F)cc1-c1cnc2c(n1)N(C1CCOCC1)C(=O)CN2 [Example 166, 7-(5-fluoro-2-methyl-4-(1H-1,2,4-triazol-3-yl)phenyl)-1-(tetrahydro-2H-pyran-4-yl)-3,4-dihydropyrazino[2,3-b]pyrazin-2(1H)-one]	6.60 to 11.30
CO[C@H]1CC[C@H](CN2C(=O)CNc3ncc(-c4cc(F)c(-c5nc[nH]n5)cc4C)nc32)CC1 [Example 150, 7-(5-fluoro-2-methyl-4-(1H-1,2,4-triazol-3-yl)phenyl)-1-((trans-4-methoxycyclohexyl)methyl)-3,4-dihydropyrazino[2,3-b]pyrazin-2(1H)-one]	6.60 to 11.30
CO[C@H]1CC[C@H](N2CC(=O)Nc3ncc(-c4cnc(C(C)(C)O)cc4C)nc32)CC1 [Example 77, 6-(6-(2-hydroxypropan-2-yl)-4-methylpyridin-3-yl)-4-(trans-4-methoxycyclohexyl)-3,4-dihydropyrazino[2,3-b]pyrazin-2(1H)-one]	6.60 to 11.30
COCCN1CC(=O)Nc2ncc(-c3cnc(C(N)=O)cc3C)nc21 [Example 32, 5-(8-(2-methoxyethyl)-6-oxo-5,6,7,8-tetrahydropyrazino[2,3-b]pyrazin-2-yl)-4-methylpicolinamide]	6.60 to 11.30
CC(C)(O)c1ccc(-c2cnc3c(n2)N(Cc2cccc(C#N)c2)C(=O)CN3)cn1 [Example 207, 3-((7-(6-(2-hydroxypropan-2-yl)pyridin-3-yl)-2-oxo-3,4-dihydropyrazino[2,3-b]pyrazin-1(2H)-yl)methyl)benzonitrile]	6.60 to 11.30
CO[C@@H]1CC[C@H](CN2CC(=O)Nc3ncc(-c4ccc(-c5nnc[nH]5)nc4C)nc32)C1 [Example 47, 4-(((1S,3R)-3-methoxycyclopentyl)methyl)-6-(2-methyl-6-(4H-1,2,4-triazol-3-yl)pyridin-3-yl)-3,4-dihydropyrazino[2,3-b]pyrazin-2(1H)-one]	6.60 to 11.30
CC(C)(O)c1ccc(-c2cnc3c(n2)N(CC2CCOC2)CC(=O)N3)cn1 (stereo not shown) [Example 103, 6-(6-(2-hydroxypropan-2-yl)pyridin-3-yl)-4-((tetrahydrofuran-3-yl)methyl)-3,4-dihydropyrazino[2,3-b]pyrazin-2(1H)-one]	6.00 to 6.30
Cc1cc(-c2nc[nH]n2)c(F)cc1-c1cnc2c(n1)N(C(C)C)C(=O)CN2 [Example 176, 7-(5-fluoro-2-methyl-4-(1H-1,2,4-triazol-3-yl)phenyl)-1-isopropyl-3,4-dihydropyrazino[2,3-b]pyrazin-2(1H)-one]	6.60 to 11.30
